Source: publication PMC5720837, “Identification of a 4-fluorobenzyl L-valinate amide benzoxaborole (AN11736) as a potential development candidate for the treatment of Animal African Trypanosomiasis (AAT)” (Bioorganic & Medicinal Chemistry Letters, 2018)

Columns and labels:
[1] = In vitro metabolic stability, mouse S9; assay type: in vitro ADME; details: S9 fraction
Procedure: (§1) Selected compounds were screened in both mouse and bovine in vitro metabolic stability assays (mouse S9 and bovine S9), as summarized in Table 2. These two species were chosen because the primary in vivo assays were conducted in mice, and the target animal of this research program is cattle. […] We evaluated the efficacy of selected compounds in two in vivo mouse models of infection, against T. congolense and T. vivax, respectively. Mice were infected with either 1 × 10^5 T. c. parasites or 1 × 10^4 T. v. parasites, and then treated with a test compound via intraperitoneal administration for 1, 2 or 4 consecutive days. The mice were then monitored for the presence of parasitemia for up to 60 days post treatment.[7] We tested in T. c. model first, then followed up with T. v. for interesting compounds. […] We selected compound 5 (AN11736) to progress to exploratory studies to determine the efficacy and safety in a preliminary formulation against induced infections of T. vivax and T. congolense in cattle.[8]

[2] = In vitro metabolic stability, bovine S9; assay type: in vitro ADME; details: S9 fraction
Procedure: as §1

[3] = tested on: T. c. parasites (STIB736/IL1180 strain); experiment: In vivo mouse model of T. congolense infection; design: species or system NMRI female mice; details: for Efficacy in mouse model T. c., n/m (mice survived / total mice in group): intraperitoneal, monitored 60 days post treatment; for curative efficacy in the T. c.-infected mouse model: single dose of 10 mg/kg
Procedure: as §1
(§2) [7] Methods for testing compound efficacy in mouse models: In vivo mouse efficacy studies were performed at the Swiss TPH, using established mouse models of infection for T. c. and T. v. NMRI female mice were independently infected either with 1 × 10^5T. c. parasites/mouse (STIB736/IL1180 strain) or 1 × 10^4T. v. parasites/mouse (STIB719/ILRAD560 strain) using an intraperitoneal route. Parasitemia was allowed to develop over 7 days (T. c.) or 3 days (T. v.), respectively, before treatment was administered. Compounds were administered via intraperitoneal injection in 10% DMSO/water. Four mice were used per treatment group. Mice were monitored for the presence of trypanosomes, via tail blood examination microscopically with twice-per-week parasitemia checks for 60 days post treatment. Parasitemia was graded on a scale of 0–3, with 0 indicating no trypanosomes seen in 20 fields of view, 1 indicating the presence of 1–5 trypanosomes per field, 2 indicating the presence of 6–20 trypanosomes per field and 3 indicating greater than 20 trypanosomes per field. Mice scoring 2 or 3 were immediately euthanized. After 60 days, aparasitemic mice were considered cured. Untreated control mice survive on average for 10 and 6 days post infection for T. c. and T. v., respectively. All in vivo mouse experiments were conducted in accordance with the strict guidelines set out by the Swiss Federal Veterinary Office, under the ethical approval of license number #2813.

[4] = tested on: Trypanosoma congolense (T. congolense IL-3000 strain), bloodstream form; experiment: Whole cell Alamar Blue assay, T. congolense (72 h in vitro); assay type: cell-based; details: Trypanosoma congolense, 72 h, T. congolense IL-3000, 72 h in vitro Alamar Blue assay
Procedure: (§3) Activity of compounds 1–71 against T. congolense and T. vivax was determined using the whole cell assays as described ^6 and their IC50 values are summarized in Table 1.
(§4) [6] Assay methods for determination of T. c. and T. v. […] Culture media consisted of complete HMI-9 (IMDM) with 20% bovine serum. To ensure log growth phase, trypanosomes were sub-cultured at appropriate dilutions every 2–3 days. Bloodstream form Trypanosoma vivax (T. vivax) cannot be cultured axenically, therefore trypanosomes (T. vivax STIB719/ILRAD 560 strain) were harvested from a highly parasitemia mouse via cardiac puncture and used directly in the ex vivo drug sensitivity assay on the same day. […] Parasite starting concentrations of 2 × 10^5 (T. c.) and 4 × 10^5 (T. v.) were calculated respectively, using a cell analyzer system or haemo-cytometer, followed by quantification at 536 nm excitation and 588 nm emission wavelengths using a […] reader. Test compounds were prepared as 10 mg/mL DMSO stocks for each assay run. Compounds were assayed in at least three separate, independent test runs and an 11-point dilution curve was used to determine the IC50 values. Data points were averaged to generate sigmoidal dose-response curves and IC50 values were determined using Softmax Pro 5.2 software.

[5] = tested on: T. v. parasites (STIB719/ILRAD560 strain); experiment: In vivo mouse model of T. vivax infection; design: species or system NMRI female mice; details: for Efficacy in mouse model T. v., n/m (mice survived / total mice in group): intraperitoneal, monitored 60 days post treatment; for curative efficacy in the T. v.-infected mouse model: single dose of 10 mg/kg, IP
Procedure: as §1, §2

[6] = tested on: Trypanosoma vivax (T. vivax STIB719/ILRAD 560 strain), bloodstream form; experiment: Whole cell Alamar Blue assay, T. vivax (48 h ex vivo); assay type: cell-based; details: Trypanosoma vivax; T. vivax STIB719/ILRAD 560, 48 h ex vivo Alamar Blue assay
Procedure: as §3, §4

Structure (SMILES)	microsomal CLint [1]	microsomal CLint [2]	Efficacy in mouse model T. c., n/m (mice survived / total mice in group) ([3]; 1 × 10 mg/kg)	IC50 [4]	Efficacy in mouse model T. v., n/m (mice survived / total mice in group) ([5]; 1 × 10 mg/kg)	curative efficacy in the T. v.-infected mouse model [5]	IC50 [6]	curative efficacy in the T. c.-infected mouse model ([3]; IP)	Efficacy in mouse model T. c., n/m (mice survived / total mice in group) ([3]; 1 × 5 mg/kg)	cure of T. c.-infected mice ([3]; single 5 mg/kg dose, IP)	Efficacy in mouse model T. c., n/m (mice survived / total mice in group) ([3]; 2 × 10 mg/kg)	Efficacy in mouse model T. v., n/m (mice survived / total mice in group) ([5]; 2 × 10 mg/kg)	Efficacy in mouse model T. v., n/m (mice survived / total mice in group) ([5]; 4 × 10 mg/kg)
Cc1c(C(=O)N[C@H](C(=O)OCC2CCC(F)(F)CC2)C(C)C)ccc2c1B(O)OC2 [Compound 71]	6.4 µL/min/mg	8.1 µL/min/mg	3/4 (1 × 10)	0.2 nM	4/4 (1 × 10)	100%	0.14 nM						
Cc1c(C(=O)N[C@H](C(=O)OC2CCOCC2)C(C)C)ccc2c1B(O)OC2 [Compound 69]	0.7 µL/min/mg	0.6 µL/min/mg	1/4 (1 × 10)	0.47 nM	1/4 (1 × 10)		1.6 nM						
Cc1c(C(=O)N[C@H](C(=O)OCc2ccc(C(F)(F)F)cn2)C(C)C)ccc2c1B(O)OC2 [Compound 34]	11.8 µL/min/mg	4.8 µL/min/mg	2/4 (1 × 10)	0.14 nM	4/4 (1 × 10)	100%	0.07 nM	≥ 50%					
Cc1c(C(=O)N[C@H](C(=O)OCc2ccc(F)c(F)c2)C(C)C)ccc2c1B(O)OC2 [Compound 8]	7.9 µL/min/mg	5.6 µL/min/mg	4/4	0.28 nM	4/4 (1 × 10)	100%	0.07 nM		0/4	unable to cure			
CC(C)[C@H](NC(=O)c1ccc2c(c1F)B(O)OC2)C(=O)OCc1ccc(F)cc1 [Compound 21]	< 1 µL/min/mg	< 1 µL/min/mg		28 nM							1/4 (2 × 10)	4/4 (2 × 10)	
Cc1c(C(=O)N[C@H](C(=O)OCc2cccc(CN(C)C)c2)C(C)C)ccc2c1B(O)OC2 [Compound 51]	1.8 µL/min/mg	5 µL/min/mg	0/4 (1 × 10)	0.25 nM	4/4 (1 × 10)		0.21 nM						
Cc1c(C(=O)N[C@H](C(=O)OCC2CCOCC2)C(C)C)ccc2c1B(O)OC2 [Compound 63]	0.9 µL/min/mg	1.5 µL/min/mg	1/4 (1 × 10)	0.39 nM	4/4 (1 × 10)		0.09 nM						
Cc1c(C(=O)N[C@H](C(=O)OC2CCC(F)(F)CC2)C(C)C)ccc2c1B(O)OC2 [Compound 70]	1.5 µL/min/mg	0.3 µL/min/mg	1/4 (1 × 10)	0.34 nM	4/4 (1 × 10)		2.28 nM						
Cc1c(C(=O)N[C@H](C(=O)OCc2ccc(C(F)(F)F)nc2)C(C)C)ccc2c1B(O)OC2 [Compound 33]	6.3 µL/min/mg	2 µL/min/mg	3/4 (1 × 10)	0.28 nM	4/4 (1 × 10)	100%	26 nM						
CC(C)[C@H](NC(=O)c1ccc2c(c1)B(O)OC2)C(=O)OCc1ccccc1 [Compound 2]				2 nM	1/5		2 nM				0/5 (2 × 10)		5/5
Cc1c(C(=O)N[C@H](C(=O)OCc2cccc(N3CCN(C)CC3)c2)C(C)C)ccc2c1B(O)OC2 [Compound 50]	8.6 µL/min/mg	12.7 µL/min/mg	1/4 (1 × 10)	0.32 nM	4/4 (1 × 10)		0.48 nM						
Cc1c(C(=O)N[C@H](C(=O)OCc2ccc(OCCN3CCCC3)cc2)C(C)C)ccc2c1B(O)OC2 [Compound 49]	1.5 µL/min/mg	4 µL/min/mg	2/4 (1 × 10)	0.39 nM	4/4 (1 × 10)	100%	68 nM	≥ 50%					
Cc1c(C(=O)N[C@H](C(=O)OCC2CCCCC2)C(C)C)ccc2c1B(O)OC2 [Compound 62]	10 µL/min/mg	20 µL/min/mg	2/4 (1 × 10)	0.38 nM	4/4 (1 × 10)	100%	0.16 nM	≥ 50%					
